# Reference: patent US11976054B2, “Amide derivative and preparation method therefore and use thereof in medicine” (Chengdu Baiyu Pharmaceutical Co., Ltd., priority 2019, dated 2024)
# pIC50: −log10 of the molar value.
# Test system: Human monocyte cell line THP-1
# Experiment: Detection of THP-1 cell pyroptosis (Caspase-Glo 1 Inflammasome Assay)
# Format: cell-based
# Conditions: 20 nM PMA 48 h, 1 μg/mL LPS, compound 3 h
# Protocol: Human monocyte cell line THP-1 (ATCC® TB-202TM) was cultured in RPMI-1640 culture medium containing […], 1 mM pyruvic acid, 0.05 mM β-mercaptoethanol and 10% double antibody under the culture conditions of 37° C. and […].
# Cell counting was performed, THP-1 cells were seeded into a 96-well plate at 50000 per well, and 20 nM PMA was added for inducing at 37° C./5% CO2 for 48 h. The culture medium was then discarded, and 100 μL of serum-free RPMI-1640 medium containing 1 μg/mL LPS was added. 5 μL of compound or solvent control was added and 3-fold diluted in gradient from a maximum concentration of 10 μM, and 10 gradient concentrations were set. The mixtures were incubated at 37° C./5% CO2 for 3 h. After the incubation, the mixtures were centrifuged at 300 g for 5 min, and the culture medium was discarded. Pyroptosis assay was performed according to specific steps described in instructions of Caspase-Glo® 1 Inflammasome Assay kit. IC50 was calculated using GraphPad Prism7.0 software.
# [1] = Homo sapiens, THP-1, THP-1 pyroptosis
smiles,measurement,setting,value
"Cc1oc(S(=N)(=O)NC(=O)Nc2c(C(C)C3CC3)ccc3c2CCC3)cc1C(C)(C)O (single isomer, unassigned) [Compound 24-1, RS- and SS-N-((5-(1-cyclopropylethyl)-2,3-dihydro-1H-inden-4-yl)carbamoyl)-4-(2-hydroxypropan-2-yl)-5-methylfuran-2-sulfonimidamide]",pIC50,THP-1 pyroptosis,6.30 to 7.00
"[2H]c1cc([C@@H](C)C2CC2)c(NC(=O)NS(=N)(=O)c2cc(C(C)(C)O)co2)c2c1CCC2 (single isomer, unassigned) [Compound 32-1, (RS, SC)- and (SS, SC)-N-((5-(1-cyclopropylethyl)-2,3-dihydro-1H-inden-4-yl-7-d)carbamoyl)-4-(2-hydroxypropan-2-yl)furan-2-sulfonimidamide]",pIC50,THP-1 pyroptosis,5.30 to 6.00
"CC(C)(O)c1coc(S(=N)(=O)NC(=O)Nc2c(CC3CCC3)ccc3c2CC3)c1 (single isomer, unassigned) [Compound 34-1, RS- and SS-N-((3-(cyclobutylmethyl)bicyclo[4.2.0]octa-1(6),2,4-trien-2-yl)carbamoyl)-4-(2-hydroxypropan-2-yl)furan-2-sulfonimidamide]",pIC50,THP-1 pyroptosis,5.00 to 5.30
"CC(C)(O)c1coc(S(=N)(=O)NC(=O)Nc2c(CC3CCC3)ccc3c2CC3)c1 (single isomer, unassigned) [Compound 34-2, RS- and SS-N-((3-(cyclobutylmethyl)bicyclo[4.2.0]octa-1(6),2,4-trien-2-yl)carbamoyl)-4-(2-hydroxypropan-2-yl)furan-2-sulfonimidamide]",pIC50,THP-1 pyroptosis,≥ 7.00
"CC(C)c1cccc(CC2CCC2)c1NC(=O)NS(=N)(=O)c1cc(C(C)(C)O)co1 (single isomer, unassigned) [Compound 70-1, RS- and SS-N-((2-(cyclobutylmethyl)-6-isopropylphenyl)carbamoyl)-4-(2-hydroxypropan-2-yl)furan-2-sulfonimidamide]",pIC50,THP-1 pyroptosis,≥ 7.00
"CC(C)c1cccc(CC2CCC2)c1NC(=O)NS(=N)(=O)c1cc(C(C)(C)O)co1 (single isomer, unassigned) [Compound 70-2, RS- and SS-N-((2-(cyclobutylmethyl)-6-isopropylphenyl)carbamoyl)-4-(2-hydroxypropan-2-yl)furan-2-sulfonimidamide]",pIC50,THP-1 pyroptosis,5.30 to 6.00
"CC(c1ccc2c(c1NC(=O)NS(=O)(=O)c1cc(C(C)(C)O)co1)CCC2)C1CC1 (stereo not shown) [Compound 1, N-((5-(1-cyclopropylethyl)-2,3-dihydro-1H-inden-4-yl)carbamoyl)-4-(2-hydroxypropan-2-yl)furan-2-sulfonamide]",pIC50,[1],6.30 to 7.00
"CC(C)(O)c1coc(S(=O)(=O)NC(=O)Nc2c(CC3CC3)ccc3c2CCC3)c1 [Compound 3, N-((5-(cyclopropylmethyl)-2,3-dihydro-1H-inden-4-yl)carbamoyl)-4-(2-hydroxypropan-2-yl)furan-2-sulfonamide]",pIC50,[1],6.30 to 7.00
"COc1cc(-c2cc(F)cc(C(C)C3CC3)c2NC(=O)NS(=O)(=O)c2cc(C(C)(C)O)co2)ccn1 (stereo not shown) [Compound 4, N-((2-(1-cyclopropylethyl)-4-fluoro-6-(2-methoxypyridin-4-yl)phenyl)carbamoyl)-4-(2-hydroxypropan-2-yl)furan-2-sulfonamide]",pIC50,[1],6.30 to 7.00
"C[C@@H](c1ccc2c(c1NC(=O)NS(=O)(=O)c1cc(C(C)(C)O)co1)CCC2)C1CC1 [Compound 5, (R)-N-((5-(1-cyclopropylethyl)-2,3-dihydro-1H-inden-4-yl)carbamoyl)-4-(2-hydroxypropan-2-yl)furan-2-sulfonamide]",pIC50,[1],≥ 7.00
"CC(c1ccc2c(c1NC(=O)NS(=O)(=O)c1cc(C(C)(C)O)co1)CCC2)C1CCC1 (stereo not shown) [Compound 15, N-((5-(1-cyclobutylethyl)-2,3-dihydro-1H-inden-4-yl)carbamoyl)-4-(2-hydroxypropan-2-yl)furan-2-sulfonamide]",pIC50,[1],6.30 to 7.00
"CC(c1ccc2c(c1NC(=O)NS(=N)(=O)c1cc(C(C)(C)O)co1)CCC2)C1CCC1 (stereo not shown) [Compound 16, N-((5-(1-cyclobutylethyl)-2,3-dihydro-1H-inden-4-yl)carbamoyl)-4-(2-hydroxypropan-2-yl)furan-2-sulfonimidamide]",pIC50,[1],≥ 7.00
"CC(C)(O)c1coc(S(=O)(=O)NC(=O)Nc2c(CC3CCC3)ccc3c2CCC3)c1 [Compound 17, N-((5-(cyclobutylmethyl)-2,3-dihydro-1H-inden-4-yl)carbamoyl)-4-(2-hydroxypropan-2-yl)furan-2-sulfonamide]",pIC50,[1],6.30 to 7.00
"Cc1oc(S(=O)(=O)NC(=O)Nc2c([C@H](C)C3CC3)ccc3c2CCC3)cc1C(C)(C)O [Compound 22, (R)-N-((5-(1-cyclopropylethyl)-2,3-dihydro-1H-inden-4-yl)carbamoyl)-4-(2-hydroxypropan-2-yl)-5-methylfuran-2-sulfonamide]",pIC50,[1],≥ 7.00
"C[C@@H](c1ccc2c(c1NC(=O)NS(=O)(=O)c1cc(C(C)(C)O)co1)CCC2)C1CCCC1 [Compound 26, (R)-N-((5-(1-cyclopentylethyl)-2,3-dihydro-1H-inden-4-yl)carbamoyl)-4-(2-hydroxypropan-2-yl)furan-2-sulfonamide]",pIC50,[1],5.30 to 6.00
"CC(C)(O)c1coc(S(=O)(=O)NC(=O)Nc2c(CC3CCCC3)ccc3c2CCC3)c1 [Compound 28, N-((5-(cyclopentylmethyl)-2,3-dihydro-1H-inden-4-yl)carbamoyl)-4-(2-hydroxypropan-2-yl)furan-2-sulfonamide]",pIC50,[1],6.00 to 6.30
"[2H]c1cc([C@@H](C)C2CC2)c(NC(=O)NS(=O)(=O)c2cc(C(C)(C)O)co2)c2c1CCC2 [Compound 30, (S)-N-((5-(1-cyclopropylethyl)-2,3-dihydro-1H-inden-4-yl-7-d)carbamoyl)-4-(2-hydroxypropan-2-yl)furan-2-sulfonamide]",pIC50,[1],5.30 to 6.00
"CC(C)(O)c1coc(S(=O)(=O)NC(=O)Nc2c(CC3CCC3)ccc3c2CC3)c1 [Compound 33, N-((3-(cyclobutylmethyl)bicyclo[4.2.0]octa-1(6),2,4-trien-2-yl)carbamoyl)-4-(2-hydroxypropan-2-yl)furan-2-sulfonamide]",pIC50,[1],6.30 to 7.00
"C[C@H](c1ccc2c(c1NC(=O)NS(=O)(=O)c1cc(C(C)(C)O)co1)CC2)C1CC1 [Compound 35, (S)-N-((3-(1-cyclopropylethyl)bicyclo[4.2.0]octa-1(6),2,4-trien-2-yl)carbamoyl)-4-(2-hydroxypropan-2-yl)furan-2-sulfonamide]",pIC50,[1],5.30 to 6.00
"C[C@@H](c1ccc2c(c1NC(=O)NS(=O)(=O)c1cc(C(C)(C)O)co1)CC2)C1CC1 [Compound 37, (R)-N-((3-(1-cyclopropylethyl)bicyclo[4.2.0]octa-1(6),2,4-trien-2-yl)carbamoyl)-4-(2-hydroxypropan-2-yl)furan-2-sulfonamide]",pIC50,[1],6.30 to 7.00
"C=C(c1c(C)cc2c(c1NC(=O)NS(=O)(=O)c1cc(C(C)(C)O)co1)CCC2)C1CC1 [Compound 40, N-((5-(1-cyclopropylvinyl)-6-methyl-2,3-dihydro-1H-inden-4-yl)carbamoyl)-4-(2-hydroxypropan-2-yl)furan-2-sulfonamide]",pIC50,[1],5.30 to 6.00
"C[C@@H](c1cc(C#N)c2c(c1NC(=O)NS(=O)(=O)c1cc(C(C)(C)O)co1)CCC2)C1CC1 [Compound 45, (R)-N-((7-cyano-5-(1-cyclopropylethyl)-2,3-dihydro-1H-inden-4-yl)carbamoyl)-4-(2-hydroxypropan-2-yl)furan-2-sulfonamide]",pIC50,[1],6.30 to 7.00
"C[C@H](c1cc(C#N)c2c(c1NC(=O)NS(=O)(=O)c1cc(C(C)(C)O)co1)CCC2)C1CC1 [Compound 47, (S)-N-((7-cyano-5-(1-cyclopropylethyl)-2,3-dihydro-1H-inden-4-yl)carbamoyl)-4-(2-hydroxypropan-2-yl)furan-2-sulfonamide]",pIC50,[1],6.00 to 6.30
C[C@H](c1ccc2c(c1NC(=O)N[S@@](=N)(=O)c1cc(C(C)(C)O)cs1)CCC2)C1CC1 [Compound 54-1],pIC50,[1],5.30 to 6.00
C[C@H](c1ccc2c(c1NC(=O)N[S@](=N)(=O)c1cc(C(C)(C)O)cs1)CCC2)C1CC1 [Compound 54-2],pIC50,[1],6.30 to 7.00
C[C@@H](c1ccc2c(c1NC(=O)N[S@@](=N)(=O)c1cc(C(C)(C)O)cs1)CCC2)C1CC1 [Compound 55-1],pIC50,[1],6.30 to 7.00
"C[C@H](c1ccc2c(c1NC(=O)NS(=O)(=O)c1ccc(C(C)(C)O)s1)CCC2)C1CC1 [Compound 57, (S)-N-((5-(1-cyclopropylethyl)-2,3-dihydro-1H-inden-4-yl)carbamoyl)-5-(2-hydroxypropan-2-yl)thiophene-2-sulfonamide]",pIC50,[1],5.30 to 6.00
"C[C@@H](c1ccc2c(c1NC(=O)NS(=O)(=O)c1ccc(C(C)(C)O)s1)CCC2)C1CC1 [Compound 58, (R)-N-((5-(1-cyclopropylethyl)-2,3-dihydro-1H-inden-4-yl)carbamoyl)-5-(2-hydroxypropan-2-yl)thiophene-2-sulfonamide]",pIC50,[1],5.30 to 6.00
"C[C@@H](c1ccc2c(c1NC(=O)NS(=O)(=O)c1cc(C3(O)CC3)co1)CCC2)C1CC1 [Compound 59, (R)-N-((5-(1-cyclopropylethyl)-2,3-dihydro-1H-inden-4-yl)carbamoyl)-4-(1-hydroxycyclopropyl)furan-2-sulfonamide]",pIC50,[1],6.00 to 6.30
"C[C@H](c1ccc2c(c1NC(=O)NS(=O)(=O)c1cc(C3(O)CC3)co1)CCC2)C1CC1 [Compound 60, (S)-N-((5-(1-cyclopropylethyl)-2,3-dihydro-1H-inden-4-yl)carbamoyl)-4-(1-hydroxycyclopropyl)furan-2-sulfonamide]",pIC50,[1],6.30 to 7.00
"O=C(Nc1c(CC2CCC2)ccc2c1CCC2)NS(=O)(=O)c1cc(C2(O)CC2)co1 [Compound 61, N-((5-(cyclobutylmethyl)-2,3-dihydro-1H-inden-4-yl)carbamoyl)-4-(1-hydroxycyclopropyl)furan-2-sulfonamide]",pIC50,[1],5.30 to 6.00
